This is an account of results in US11453689B2, “3-pyrrolidine-indole derivatives as serotonergic psychedelic agents for the treatment of CNS disorders” (Mindset Pharma Inc., priority 2020, dated 2022).

Data set [1] is described as follows: Rat liver microsomes stability with NADPH. The note with it: for half-life at 2 μM / microsomal CLint at 2 μM: male, rat, microsomes; for Remaining Percentage (%) after 60 min, Rat: rat liver microsomes, with NADPH, 2 μM. As to the method:
(§1) The objective of this study was to estimate in vitro metabolic stability of exemplary compounds in pooled human, male rat and male mouse liver microsomes. The concentrations of exemplary compounds in reaction systems were evaluated by LC-MS/MS for estimating the stability in pooled human, male rat and male mouse liver microsomes. The in vitro intrinsic clearances of test compounds were determined as well.
(§2) A master solution in the “Incubation Plate” containing phosphate buffer, ultra-pure H2O, MgCl2 solution and liver microsomes was made according to Table 3. The mixture was pre-warmed at 37° C. water bath for 5 minutes.
(§3) 40 μL of 10 mM NADPH solution was added to each well. The final concentration of NADPH was 1 mM. The negative control samples were prepared by replacing NADPH with 40 μL of ultra-pure H2O. Samples were prepared in duplicate. Negative controls were prepared in singlet.
(§4) The reaction was started with the addition of 4 μL of 200 μM exemplary test compounds or control compounds to each master solution to get the final concentration of 2 μM. This study was performed in duplicate.
(§5) Aliquots of 50 μL were taken from the reaction solution at 0, 15, 30, 45 and 60 minutes. The reaction solutions were stopped by the addition of 4 volumes of cold methanol with IS (100 nM alprazolam, 200 nM imipramine, 200 nM labetalol and 2 μM ketoprofen). Samples were centrifuged at 3,220 g for 40 minutes. Aliquot of 90 μL of the supernatant was mixed with 90 μL of ultra-pure H2O and then was used for LC-MS/MS analysis.
(§6) LC/MS analysis was performed for all samples from this study using a Shimadzu liquid chromatograph separation system equipped with degasser DGU-20A5R; solvent delivery unit LC-30AD; system controller SIL-30AC; column oven CTO-30A; CTC Analytics HTC PAL System. Mass spectrometric analysis was performed using an Triple Quad™ 5500 instrument.
(§7) All calculations were carried out using Microsoft Excel. Peak areas were determined from extracted ion chromatograms. The slope value, k, was determined by linear regression of the natural logarithm of the remaining percentage of the parent drug vs. incubation time curve.
(§8) Conversion of the in vitro t1/2 (min) into the in vitro intrinsic clearance (in vitro CLint, in μL/min/mg proteins) was done using the following equation (mean of duplicate determinations): […]
On the technique in general: Liver microsomes are a subcellular fraction often used to study metabolism.

In a further data set the target is human 5-HT2A receptor (Homo sapiens (Human), UniProt P28223). Put plainly: Radioligand ([3H]-ketanserin) binding assay on human 5-HT2A receptor. On the procedure: i. Prepare the assay buffer following the table below;
ii. Preparation of 8 doses of reference and exemplary test compounds starting from 10 mM stock solution as requested by 5-fold serial dilutions with 100%;
iii. […] a. Add 50 μl/well of 0.5% (v/v) PEI to UniFilter-96 GF/B plates. Seal the plates and incubate at 4° C. for 3 hrs; b. After incubation, wash the plates 3 times with ice-cold wash buffer (50 mM Tris, pH7.4);
iv. Preparation of assay plates: a. Dilute cell membrane with assay buffer and add 330 μl/well to 96 round deep well plates to reach a concentration of 20 μg/well; b. Prepare 8 concentrations of reference or exemplary test compounds and add 110 μl/well to 96 round deep well plates; c. Dilute [3H]-ketanserin with assay buffer to 5 nM (5× final concentration) and add 110 μl/well to 96 round deep well plates.
v. Centrifuge the plate at 1000 rpm for 30 secs and then agitate at 600 rpm, R.T. for 5 min.
vi. Seal the plates and incubate the plate at 27° C. for 90 min.
vii. Stop the incubation by vacuum filtration onto GF/B filter plates followed by 4 times washing with ice-cold wash buffer (50 mM Tris, pH7.4).
ix. Seal the filter plates and add 40 μl/well of scintillation cocktail.
x. Read the plate by using a Microbeta2 microplate counter.
For reference and exemplary test compounds, the results are expressed as % Inhibition, using the normalization equation: N=100−100×(U−C2)/(C1−C2), where U is the unknown value, C1 is the average of high controls, and C2 is the average of low controls. The IC50 is determined by fitting percentage of inhibition as a function of compound concentrations with Hill equation using XLfit.

The nature of data set [2]: Human liver microsomes stability with NADPH. The following applies: for Remaining Percentage (%) after 60 min, Human: human liver microsomes, with NADPH, 2 μM; for half-life at 2 μM / microsomal CLint at 2 μM: human, microsomes. On the procedure: as §1, §2, §3, §4, §5, §6, §7, §8
Data set [3] concerns the target human 5-HT2A (h5-HT2A) receptor (Homo sapiens (Human), UniProt P28223). The data set can be described thus: FLIPR calcium assay, human 5-HT2A receptor, agonist mode. Format: cell-based. On the procedure: I. Assessment of the Activated Effect of Exemplary Compounds of Formula I Targeting on Human 5-HT2A (h5-HT2A) Receptor Under Agonist Mode:
1. Culture the cells in cell culture medium (DMEM containing 10% FBS, 1× penicillin-streptomycin 300 μg/ml G418 and 100 μg/ml hygromycin B) at 37° C., 5% (v/v) CO2.
2. One day before the assays, detach the cell using TrypLE™ Express and count cells using cell counter.
3. Seed 20000 cells/well in 30 μl/well culture medium to a 384-well cell plate and incubate the cells overnight at 37° C., 5% (v/v) CO2.
4. On the assay day, prepare 2×dye solution following the manual of the FLIPR® Calcium 6 Assay Kit: i. Dilute the dye with assay buffer(20 mM HEPES in 1× HBSS, PH7.4); ii. Add probenecid to the final concentration of 5 mM; iii. Vortex vigorously for 1-2 minutes.
5. Medium from cell plate by flicking the cell plate on towel papers.
6. Add 10 μl of assay buffer and 10 μl of 2×dye solution to each well of the cell plate.
7. Put the cell plate on plate shaker, agitate the plate at 600 rpm for 2 minutes. Incubate the plate at 37° C. for 2 hours followed by additional 15-minute incubation at 25° C.
8. Prepare 3×compound in assay buffer: a. Dilute reference compounds to required concentration with DMSO. Add the compounds to a 384-well compound plate; b. Perform serial dilutions; c. Add 10 mM test compounds to the compound plate, perform 3-fold serial dilutions. d. […] Add 20 μl/well assay buffer to the compound plate; f. Mix the plate on plate shaker for 2 mins;
i. The normalized fluorescence reading (RFU) is calculated as shown follow, while Fmax and Fmin stand for maximum and minimum of calcium signal during defined time window: RFU=Fmax−Fmin
ii. Calculate the percentage activation by using following equation: […]
iii. Calculate EC50 by fitting % activation against log of compound concentrations with Hill equation using XLfit.

The nature of data set [4]: Mouse liver microsomes stability with NADPH. The following applies: for half-life at 2 μM / microsomal CLint at 2 μM: male, mouse, microsomes; for Remaining Percentage (%) after 60 min, Mouse: mouse liver microsomes, with NADPH, 2 μM. As to the method: as §1, §2, §3, §4, §5, §6, §7, §8
Data set [5] concerns head-twitch response (HTR) in male C57BL6 mice. The data set can be described thus: Mouse head-twitch response (HTR). Type of data set: in vivo. The following applies: M100907 0.5 mg/kg IP before I-2 10 mg/kg SC. On the procedure: Male, C57BL/6J mice (body weight range 20-30 g) were dosed with the appropriate dose of test article, and following a 1-minute pre-treatment time, placed in individual observation chambers. Animals were visually assessed for the incidence head twitches continuously over a 1 hr period. Head twitches were defined as a rapid jerk of the head which was not elicited by an external tactile stimulus (Come and Pickering, Psychopharmacologia, 1967, 11(1): 65-78). Each head twitch was individually counted by a trained observer, and the data expressed as the mean±SEM of 6-10 mice per group. Mice were used in a single experiment only.
The effect of various doses of exemplary compound of Formula I, I-2, on head-twitch response (HTR) in male C57BL6 mice were measured. The mice were treated with compound I-2 (0.03-10 mg/kg, SC) by SC route (N=6 mice/dose), and the total number of head twitches were recorded over a 1h period. Data is expressed as mean±SEM. The induction of head twitches elicited by 5-HT2A receptor agonists is believed to represent a behavioural proxy of their psychedelic effects.
To evaluate the involvement of 5-HT2A receptor on the HTR induced by exemplary compounds of Formula I, mice were pretreated with the selective 5-HT2AR antagonist M100907 (also known as volinanserin) prior to the administration of exemplary compounds of Formula I, for example, 1-2 (10 mg/kg SC).

The conditions of data set [6]: tobacco use disorder, cited from earlier work.

The term half-life denotes the time in which the quantity being followed falls by half. Low readings indicate rapid decline, high ones slow decline. The microsomal CLint is a measure of how fast metabolising enzymes remove a compound, apart from limits set by blood flow. One may read the IC50 as the point on the concentration scale where inhibition reaches its midpoint. A word on the EC50: it is the concentration giving half of the maximal effect.

Each structure is given as a SMILES string. Where two headings read alike, the source gives them in different places.

On to `[2H]C([2H])(c1c[nH]c2cccc(OC(=O)CCCCCCC/C=C\C/C=C\CCCCC)c12)[C@H]1CCCN1C([2H])([2H])[2H]` [Compound I-49, 3-(((R)-1-(methyl-d3)pyrrolidin-2-yl)methyl-d2)-1H-indol-4-yl (9Z,12Z)-octadeca-9,12-dienoate], for which, in data set [1], the half-life at 2 μM was determined as 0.807 h; the microsomal CLint at 2 μM worked out at 28.6 µL/min/mg; the “Remaining Percentage (%) after 60 min, Rat” value was determined as 42.38%. Besides, on human 5-HT2A receptor ([3H]-ketanserin competition binding, read-out: h5-HT2A IC50), the 50% inhibitory concentration (IC50) was less than 500 nM. Moreover, in data set [2], the “Remaining Percentage (%) after 60 min, Human” value came to 86.81%; the half-life at 2 μM was 4.9 h; the intrinsic clearance (microsomal CLint) at 2 μM amounted to 4.72 µL/min/mg. Further, the EC50 in data set [3] (FLIPR, agonist mode, read-out: h5-HT2A EC50) fell in the range of 1000 to 10000 nM. In data set [4], the half-life at 2 μM came out at 0.347 h; the microsomal CLint at 2 μM was 66.5 µL/min/mg; the “Remaining Percentage (%) after 60 min, Mouse” value amounted to 13.60%.
Consider `[2H]C([2H])(c1c[nH]c2cccc(O)c12)[C@H]1CCCN1` [Compound I-50, (R)-3-(pyrrolidin-2-ylmethyl-d2)-1H-indol-4-ol], for which, in data set [1], the half-life at 2 μM is 0.662 h; the intrinsic metabolic clearance (microsomal CLint) at 2 μM amounted to 34.9 µL/min/mg; the “Remaining Percentage (%) after 60 min, Rat” value stood at 34.11%. The compound further gave a concentration for half-maximal inhibition (IC50) on human 5-HT2A receptor of 500 to 5000 nM. Besides, in data set [2], the “Remaining Percentage (%) after 60 min, Human” value is 69.29%; the half-life at 2 μM was found to be 1.89 h; the intrinsic metabolic clearance (microsomal CLint) at 2 μM worked out at 12.2 µL/min/mg. Moreover, in data set [3], the EC50 is less than 1000 nM. In data set [4], the half-life at 2 μM was 1.24 h; the intrinsic metabolic clearance (microsomal CLint) at 2 μM is 18.6 µL/min/mg; the “Remaining Percentage (%) after 60 min, Mouse” value is reported as 57.27%.
For the compound `COc1cccc([C@H](O)C2CCN(CCc3ccc(F)cc3)CC2)c1OC` [Compound M100907, reference compound], the “effect of I-2 on HTR after pretreatment with 5-HT2A antagonist M100907” value in data set [5] was “completely blocked”.
With `CN(C)CCc1c[nH]c2cccc(OP(=O)(O)O)c12` [psilocybin, 4-phosphoryloxy-N,N-dimethyltrypatmine], the abstinence rate in data set [6] (12 months follow-up) is on record as 67%; in data set [6] (six months follow-up), 80%.
